pKd: −log10 of the molar value. Values joined by “and” are separate entries in the source; they are usually repeats but may differ in a detail not shown here. Equal entries are not always repeated.

Experiment [1] deals with T1, PDE10A (Homo sapiens, UniProt Q9Y233).
T1 construct: purchased Biocrea GmbH, Radebeul, Germany; host or cells: SF21 insect cells (PDE10A-transfected; baculovirus system is mentioned)
The experiment in a line: Homologous competitive binding on membrane homogenates of PDE10A-transfected SF21 cells. The procedure: The dissociation constant KD of [^18F]IV was determined in homologous competitive binding experiments by nonlinear regression analysis. Cell membrane homogenates from PDE10A-transfected SF21 cells (100 µg protein/mL incubation volume) were incubated with solutions of six concentrations of IV (working concentration 10 pM–[…]), each spiked with a fixed concentration of [^18F]IV (working concentration 0.05–0.1 nM).
Crude membrane homogenates isolated from PDE10A-transfected SF21 cells were obtained from Biocrea GmbH, Radebeul, Germany. For competitive radioligand displacement experiments (n = 2), the membrane preparations were diluted with incubation buffer (50 mM Tris-HCl, pH 7.4 at room temperature, 5 mM MgCl2) and re-homogenized by passing through a 27-gauge needle. The protein (100 µg) was incubated with 0.05–0.1 nM of [^18F]IV and different concentrations of IV (10 pM–1 µM), diluted from a 10 mM stock in DMSO, at a final volume of 1 mL. Nonspecific binding was determined in the presence of 10 µM of I, and control incubation was carried out accordingly using crude membrane preparations obtained from non-transfected SF21 cells.
Incubation at room temperature was terminated after 120 min by rapid filtration (Brandel 48-channel harvester; Biomedical Research and Development Lab. Inc., Gaithersburg, MD, USA) on Whatman GF/B glass-fiber filters, pre-soaked for 90 min in 0.3% polyethylenimine (Sigma, Deisenhofen, Germany), followed by washing four times with 4 mL of ice-cold wash buffer (50 mM Tris-HCl, pH 7.4 at 4 °C). Filter-bound radioactivity was quantified using a calibrated γ-counter (Wallac WIZARD, Perkin Elmer, Waltham, MA, USA).
Each experiment was carried out in triplicate. The binding parameter IC50 was estimated using iterative non-linear curve fitting. KD of [^18F]IV was estimated directly from homologous competition curve with KD = IC50-[radioligand] as well as from the respective saturation isotherm by nonlinear regression analysis.

Experiment [2] addresses T2, PDE10A (Rattus norvegicus, UniProt Q9QYJ6).
T2 construct: Frozen sagittal brain sections (12 μm) obtained from female SPRD rats (8–10 weeks); from tissue; host or cells: rat brain sections (female SPRD rats)
T2 sequence (Q9QYJ6 1-794): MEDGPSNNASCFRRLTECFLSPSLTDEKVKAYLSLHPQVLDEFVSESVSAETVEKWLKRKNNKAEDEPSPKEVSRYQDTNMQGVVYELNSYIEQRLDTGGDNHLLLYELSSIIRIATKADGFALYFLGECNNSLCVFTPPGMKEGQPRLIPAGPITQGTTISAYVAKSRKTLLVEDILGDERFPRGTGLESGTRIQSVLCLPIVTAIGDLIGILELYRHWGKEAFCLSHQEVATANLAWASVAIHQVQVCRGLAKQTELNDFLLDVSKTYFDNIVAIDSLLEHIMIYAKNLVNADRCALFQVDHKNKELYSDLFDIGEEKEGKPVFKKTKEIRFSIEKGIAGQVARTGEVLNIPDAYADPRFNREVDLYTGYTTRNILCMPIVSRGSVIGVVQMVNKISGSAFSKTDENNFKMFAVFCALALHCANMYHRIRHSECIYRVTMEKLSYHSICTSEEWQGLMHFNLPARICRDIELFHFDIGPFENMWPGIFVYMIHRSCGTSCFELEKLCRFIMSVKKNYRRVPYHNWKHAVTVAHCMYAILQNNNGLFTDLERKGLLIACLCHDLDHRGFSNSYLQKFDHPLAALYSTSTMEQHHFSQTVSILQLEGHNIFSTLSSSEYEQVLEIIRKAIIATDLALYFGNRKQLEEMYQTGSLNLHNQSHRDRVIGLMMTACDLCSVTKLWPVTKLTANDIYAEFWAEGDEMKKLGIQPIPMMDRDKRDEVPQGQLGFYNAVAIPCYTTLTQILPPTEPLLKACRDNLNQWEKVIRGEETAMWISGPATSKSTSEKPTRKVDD
As to the kind of experiment: In vitro autoradiography on sagittal rat brain slices. The class given is binding. To be noted: 25 nM [18F]IV. The text has this: Figure 3 Representative color-coded autoradiographic images of sagittal rat brain slices. […] CP, caudate putamen; NA, nucleus accumbens; OT, olfactory tubercle; Th, thalamus; Hi, hippocampus; SN, substantia nigra; Cb, cerebellum; Co, cortex; OB, olfactory bulb; PN, pontine nuclei.
This pattern corresponds with the immunohistochemical localization of PDE10A in rat brain described in Seeger et al..
Therefore, species-specific patterns of PDE expression have to be considered in the development of PDE10A targeting PET ligands based on the herein reported quinazoline structures. […]
Frozen sagittal brain sections (12 μm) obtained from female SPRD rats (8–10 weeks) were thawed, dried in a stream of cold air, preincubated for 20 min with 50 mM TRIS-HCl, pH 7.4, at room temperature, and dried again. […] After incubation, sections were washed twice for 2 min with 50 mM TRIS-HCl, pH 7.4 at 4 °C, dipped briefly in ice-cold deionized water (5 s), dried in a stream of cold air, and exposed for 17 h to ^18F-sensitive storage phosphor screens, which were analyzed using the BAS-1800 II system (see above).

T1 sequence (Q9Y233 whole entry, species assumed): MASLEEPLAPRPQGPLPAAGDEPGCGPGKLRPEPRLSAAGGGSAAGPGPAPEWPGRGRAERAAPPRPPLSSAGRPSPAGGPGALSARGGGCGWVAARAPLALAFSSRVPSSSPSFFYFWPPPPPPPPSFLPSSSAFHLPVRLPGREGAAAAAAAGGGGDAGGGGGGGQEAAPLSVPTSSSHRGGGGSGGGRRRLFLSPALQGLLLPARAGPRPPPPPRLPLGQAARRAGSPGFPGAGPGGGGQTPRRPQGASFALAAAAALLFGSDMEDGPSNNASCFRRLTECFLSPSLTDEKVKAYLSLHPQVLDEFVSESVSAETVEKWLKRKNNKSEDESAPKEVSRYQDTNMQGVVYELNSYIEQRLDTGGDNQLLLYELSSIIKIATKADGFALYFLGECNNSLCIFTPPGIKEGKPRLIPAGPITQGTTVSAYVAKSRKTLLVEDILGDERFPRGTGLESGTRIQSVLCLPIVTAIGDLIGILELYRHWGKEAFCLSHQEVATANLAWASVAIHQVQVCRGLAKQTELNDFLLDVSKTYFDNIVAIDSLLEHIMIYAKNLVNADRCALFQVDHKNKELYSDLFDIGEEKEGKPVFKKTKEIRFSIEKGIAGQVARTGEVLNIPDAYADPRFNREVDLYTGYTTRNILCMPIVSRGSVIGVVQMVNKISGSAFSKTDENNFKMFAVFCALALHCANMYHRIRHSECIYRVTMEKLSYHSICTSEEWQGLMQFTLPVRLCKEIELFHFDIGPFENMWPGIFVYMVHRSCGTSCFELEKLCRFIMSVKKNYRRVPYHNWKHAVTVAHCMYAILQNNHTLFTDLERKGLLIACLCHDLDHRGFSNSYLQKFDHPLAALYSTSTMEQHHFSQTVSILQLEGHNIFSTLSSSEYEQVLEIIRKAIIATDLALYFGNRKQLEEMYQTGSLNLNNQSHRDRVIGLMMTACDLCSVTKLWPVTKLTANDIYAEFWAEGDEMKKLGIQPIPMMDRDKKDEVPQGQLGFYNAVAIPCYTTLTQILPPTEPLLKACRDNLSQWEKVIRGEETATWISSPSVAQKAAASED

The pKd is the Kd on a negative log10 scale, so that one unit is a factor of ten. As to `COc1cc2c(N3CC[C@@H](Oc4cnc5ccccc5n4)C3)ncnc2cc1OCC[18F]` [[^18F]IV, (R)-7-(2-[^18F]Fluoroethoxy)-6-methoxy-4-(3-(quinoxalin-2-yloxy)pyrrolidin-1-yl)quinazoline], the pKd on PDE10A [1] (mean, n = 2, calculated from homologous competition) is 7.85 and ~7.85; at PDE10A [1] (single experiments (n = 2)), 7.80 and 7.94. Also, the “binding of [18F]IV on rat brain slices, co-incubation with IV” value on PDE10A [2] (10 μM IV, 60 min) is “saturable binding”. Further, the “inhibition of [18F]IV binding on rat brain slices by MP-10” value on PDE10A [2] (10 μM MP-10, 60 min) is on record as “not completely inhibited”.

Values taken from article PMC3763632, “Radiosynthesis and Radiotracer Properties of a 7-(2-[^18F]Fluoroethoxy)-6-methoxypyrrolidinylquinazoline for Imaging of Phosphodiesterase 10A with PET” (Pharmaceuticals, 2012).
